Test results taken from PMC8044178, “Structural basis of norepinephrine recognition and transport inhibition in neurotransmitter transporters” (Nature Communications, 2021).
Where two headings read alike, the source gives them in different places.

Legend:
hNET [1] = details: read-out: Binding Inhibition (Ki), hNET; cited from earlier work
dDATfc A428S = target: T1, dDATfc A428S (Drosophila melanogaster, UniProt Q7K4Y6, A428S/DEL164-191/F471L/L415A/V74A); experiment: cell-based
T1 construct: expressed in transfected cells; host or cells: HEK293S GnTI- cells, transient transfection with pEG-BacMam plasmid
Protocol: (§1) Earlier studies have posited that non-conserved residues in the primary binding site are responsible for selective inhibition of biogenic amine uptake[57],[58]. […] Effects of these mutations were analyzed through uptake inhibition using the three SNRIs employed in this study (Fig. 6a–c). […] Supplementary Table 2)[56],[59].
(§2) Additional mutations in the subsite B or subsite C were incorporated into this gene used for carrying out the uptake assays.
(§3) Cells were transiently transfected with pEG-BacMam plasmid harboring the dDAT cGFP gene and incubated for 35–40 hrs at 37 °C with 5% CO2 and 80% humidity. […] The transport activity was arrested with 0.5 ml of pre-chilled assay buffer containing 100 μM desipramine (Sigma Aldrich) added to each reaction. The cells were then washed twice with the same buffer before solubilizing them in 0.1 ml of 20 mM DDM for one hour at room temperature. […] Following this, 0.1 ml of the supernatant was added to 0.5 ml of scintillation fluid (Ultima Gold, Perkin Elmer) and the radioactivity was estimated on MicroBeta scintillation counter (Perkin Elmer). […] The background-subtracted, dose–response plots were analyzed using GraphPad Prism v.5.0.1 and Ki values were determined from Cheng–Prusoff’s equation using the IC50 values obtained from the experiments.

dDATfc A117S = target: T2, dDATfc A117S (Drosophila melanogaster, UniProt Q7K4Y6, A117S/DEL164-191/F471L/L415A/V74A); experiment: cell-based
T2 construct: expressed in transfected cells; host or cells: HEK293S GnTI- cells, transient transfection with pEG-BacMam plasmid
Protocol: as §1, §2, §3

dDATmfc = target: T3, dDATmfc (Drosophila melanogaster, UniProt Q7K4Y6, DEL162-202/F471L/L415A/V74A); experiment: biochemical; details: read-out: Percent binding
T3 construct: GFP-8x-His (C); made in house; host or cells: HEK293S GnTI- cells, BacMam baculovirus transduction
Protocol: (§4) Binding assays were performed with 20 nM of purified dDAT protein by scintillation proximity assay. For determining nisoxetine Kd, [^3H] Nisoxetine (Perkin Elmer) (in 1:5 molar ratio) was used in the range of 0.1 nM to 500 nM with 100 µM desipramine added to the control samples. Competition assays were done with 50 nM [^3H] […] The assays were done in 1 mM DDM, 0.2 mM CHS, 20 mM Tris-Cl (pH 8), 300 mM NaCl and 5% glycerol. The background values were subtracted to plot the final curves in GraphPad prism v5.0.1 and the Kd values were calculated. The IC50 values obtained from binding competition assays were used to deduce the Ki values by Cheng–Prusoff’s equation.

dDATfc A117S/A428S = target: T4, dDATfc A117S/A428S (Drosophila melanogaster, UniProt Q7K4Y6, A117S/A428S/DEL164-191/F471L/L415A/V74A); experiment: cell-based; assay type: cell-based
T4 construct: expressed in transfected cells; host or cells: HEK293S GnTI- cells, transient transfection with pEG-BacMam plasmid
Protocol: as §1, §2, §3

hDAT [2] = details: read-out: Uptake Inhibition Ki, hDAT; ref 4 (Supplementary: Vaishnavi et al., 2004); cited from earlier work
[3] = target: T5, dDATfc (Drosophila melanogaster dopamine transporter functional construct) (Drosophila melanogaster, UniProt Q7K4Y6, DEL164-191/F471L/L415A/V74A); experiment: cell-based
T5 construct: expressed in transfected cells; host or cells: HEK293S GnTI- cells, transient transfection with pEG-BacMam plasmid
Protocol: as §2, §3

hDAT [4] = target: hDAT; design: method as in earlier work; details: vs. RTI-55; ref 4 (Supplementary: Vaishnavi et al., 2004); read-out: Binding Inhibition (Ki), hDAT; cited from earlier work
dDATNET = target: T6, dDATNET (Drosophila melanogaster, UniProt Q7K4Y6, D121G/DEL162-202/F471L/L415A/S426M/V74A); experiment: biochemical; assay type: binding
T6 construct: GFP-8x-His (C); made in house; host or cells: HEK293S GnTI- cells, BacMam baculovirus transduction
Protocol: as §4

hNET [5] = details: read-out: Uptake Inhibition Ki, hNET; cited from earlier work

For `CCN(CC)C(=O)[C@]1(c2ccccc2)C[C@@H]1CN` [Milnacipran, 1R-2S milnacipran], the Ki (hNET [1]) is given as 0.022 ± 0.00258 µM, the IC50 (dDATfc A428S) is given as 6.6 ± 0.4 µM and the inhibition at 100 µM (dDATfc A428S; 0.5 h, read-out: Percent inhibition of DA uptake, A428S, Log[compound] M = -4, single replicates) is given as 7.1%. For the same compound, the inhibition at 30 µM (dDATfc A428S; 0.5 h, read-out: Percent inhibition of DA uptake, A428S, Log[compound] M = -4.52288, single replicates) was 15.3%, the inhibition at 10 µM (dDATfc A428S; 0.5 h, read-out: Percent inhibition of DA uptake, A428S, Log[compound] M = -5, single replicates) was 34.4% and the inhibition at 3 µM (dDATfc A428S; 0.5 h, read-out: Percent inhibition of DA uptake, A428S, Log[compound] M = -5.52288, single replicates) was 73.5%. It also gave an inhibition at 0.1 µM (dDATfc A428S; 0.5 h, read-out: Percent inhibition of DA uptake, A428S, Log[compound] M = -7, single replicates) of 107%, an inhibition at 0.03 µM (dDATfc A428S; 0.5 h, read-out: Percent inhibition of DA uptake, A428S, Log[compound] M = -7.52288, single replicates) of 100% and an IC50 (dDATfc A117S) of 2.8 ± 0.2 µM. For the same compound, the inhibition at 10 µM (dDATfc A117S; 0.5 h, read-out: Percent inhibition of DA uptake, A117S, Log[compound] M = -5, single replicates) was 21.8%, the inhibition at 2.3 µM (dDATfc A117S; 0.5 h, read-out: Percent inhibition of DA uptake, A117S, Log[compound] M = -5.63827, single replicates) was 62.3% and the inhibition at 1 µM (dDATfc A117S; 0.5 h, read-out: Percent inhibition of DA uptake, A117S, Log[compound] M = -6, single replicates) was 87.2%. For the same compound, the inhibition at 0.1 µM (dDATfc A117S; 0.5 h, read-out: Percent inhibition of DA uptake, A117S, Log[compound] M = -7, single replicates) was 99.6%, the inhibition at 0.023 µM (dDATfc A117S; 0.5 h, read-out: Percent inhibition of DA uptake, A117S, Log[compound] M = -7.63827, single replicates) was 94.7% and the remaining activity at 10 µM (dDATmfc; DATmfc, Log Milnacipran (M) -5, replicate values) was 21.2%. The remaining activity at 0.03 µM (dDATmfc) was 98.1%, the remaining activity at 0.3 µM (dDATmfc) was 86.3% and the remaining activity at 3 µM (dDATmfc) was 47.5%. It also gave an IC50 (dDATfc A117S/A428S) of 8.9 ± 0.3 µM, an inhibition at 100 µM (dDATfc A117S/A428S; 0.5 h, read-out: Percent inhibition of DA uptake, A117S_A428S, Log[compound] M = -4, single replicates) of 6.51% and an inhibition at 30 µM (dDATfc A117S/A428S; 0.5 h, read-out: Percent inhibition of DA uptake, A117S_A428S, Log[compound] M = -4.52288, single replicates) of 16.4%. It also gave an inhibition at 10 µM (dDATfc A117S/A428S; 0.5 h, read-out: Percent inhibition of DA uptake, A117S_A428S, Log[compound] M = -5, single replicates) of 35.5%, an inhibition at 3 µM (dDATfc A117S/A428S; 0.5 h, read-out: Percent inhibition of DA uptake, A117S_A428S, Log[compound] M = -5.52288, single replicates) of 78.6% and an inhibition at 0.3 µM (dDATfc A117S/A428S; 0.5 h, read-out: Percent inhibition of DA uptake, A117S_A428S, Log[compound] M = -6.52288, single replicates) of 91.2%. For the same compound, the inhibition at 0.1 µM (dDATfc A117S/A428S; 0.5 h, read-out: Percent inhibition of DA uptake, A117S_A428S, Log[compound] M = -7, single replicates) was 87.2%, the inhibition at 0.03 µM (dDATfc A117S/A428S; 0.5 h, read-out: Percent inhibition of DA uptake, A117S_A428S, Log[compound] M = -7.52288, single replicates) was 89.7% and the Ki (hDAT [2]) was over 100 µM. It also gave an IC50 [3] of 2.4 ± 0.1 µM, a Ki [3] of 1.5 ± 0.1 µM and an inhibition at 100 µM ([3]; HEK293S, 0.5 h, read-out: Percent inhibition of DA uptake, dDATfc, Log[compound] M = -4, single replicates) of 3.99%. The inhibition at 30 µM ([3]; HEK293S, 0.5 h, read-out: Percent inhibition of DA uptake, dDATfc, Log[compound] M = -4.52288, single replicates) was 6.55%, the inhibition at 10 µM ([3]; HEK293S, 0.5 h, read-out: Percent inhibition of DA uptake, dDATfc, Log[compound] M = -5, single replicates) was 22.7% and the inhibition at 3 µM ([3]; HEK293S, 0.5 h, read-out: Percent inhibition of DA uptake, dDATfc, Log[compound] M = -5.52288, single replicates) was 46.8%. For the same compound, the inhibition at 1 µM ([3]; HEK293S, 0.5 h, read-out: Percent inhibition of DA uptake, dDATfc, Log[compound] M = -6, single replicates) was 82.4%, the Ki (hDAT [4]) was over 100 µM and the Ki (dDATNET; Binding Ki with dDATNET (vs. Nisoxetine), 50 nM [3H] nisoxetine, Cheng-Prusoff) was 0.605 ± 0.0253 µM. The remaining activity at 300 µM (dDATNET; read-out: Percent binding, DAT NET, Log Milnacipran (M) -3.52288, replicate values) was 3.09%, the remaining activity at 100 µM (dDATNET; read-out: Percent binding, DAT NET, Log Milnacipran (M) -4, replicate values) was 12% and the remaining activity at 30 µM (dDATNET; read-out: Percent binding, DAT NET, Log Milnacipran (M) -4.52288, replicate values) was 31.5%. For the same compound, the remaining activity at 10 µM (dDATNET; read-out: Percent binding, DAT NET, Log Milnacipran (M) -5, replicate values) was 60%, the remaining activity at 3 µM (dDATNET; read-out: Percent binding, DAT NET, Log Milnacipran (M) -5.52288, replicate values) was 78.6% and the Ki (hNET [5]) was 0.052 ± 0.009 µM.
